Experimental findings from US7524503B2, “Human cytomegalovirus (HCMV) cytotoxic T cell epitopes, polyepitopes compositions comprising same and diagnostic and prophylactic and therapeutic uses therefor” (priority 2001, dated 2009) are described below.

For experiment [1], the system named is PBMC from healthy HCMV seropositive donors. Put plainly: IFN-γ ELISPOT assay. Format: cell-based, human. The conditions noted are these: peptide 10 μg/ml. In outline: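 IFN-γ-secreting T cells were counted as spots, with no-peptide control wells subtracted and means taken from triplicate wells. These spots came from healthy seropositive carriers' PBMC, 2.5×10^5 per well.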

The target in experiment [2] is T1, HLA A3 (Homo sapiens, UniProt P04439).
T1 construct: EGFP; expressed in transfected cells; host or cells: T2 cells
The experiment can be described thus: MHC stabilization assay on T2 cells. Format: cell-based. The conditions noted are these: HLA A3 on transfected T2 cells; relative increase vs no peptide at 26° C.

The test system of experiment [3] is HLA A24. Put plainly: MHC stabilization assay on T2 cells. The conditions noted are these: HLA A24 on transfected T2 cells; relative increase vs no peptide at 26° C. It is filed as cell-based, human.
In experiment [4] the test system is CD8+ T cells. The experiment can be described thus: CD4+/CD8+ analysis of 20-mer peptides (intracellular IFN-γ staining or depletion ELISPOT). It is filed as cell-based, human. The protocol: (§1) To determine whether a particular 20-mer peptide contained either a CD4^+- or CD8^+-restricted epitope, or both, CD4^+/CD8^+ cell depletion ELISPOT assays were performed on PBMC from healthy virus carriers. For any one experiment, three populations of cells were used: a) CD8^+-depleted PBMC, b) CD4^+-depleted PBMC, and c) non-depleted PBMC. These populations of cells were tested concurrently with the same peptides in a conventional ELISPOT assay as described herein above. DYNABEADS M-450 (Dynal, Oslo, Norway) that bound specifically to CD4^+- or CD8^+ cells were used to perform the depletion essentially according to manufacturers instructions. Beads were washed twice in cold PBS supplemented with 2% FCS using magnetic isolation. The requisite number of cells was resuspended in cold PBS supplemented with 2% FCS, added to the beads and then incubated at 4° C., in the dark, for 30 mins (CD8^+ beads) or 60 mins (CD4^+ beads). Populations were depleted of CD4^+ or CD8^+ cells using magnetic separation. After depletion, the non-attached cells were removed and washed once in growth medium, counted and used in conventional ELISPOT assay. Depleted cells were used at 1.7×10^5 cells per well and the non-depleted population was used at the standard 2.5×10^5 cells per well. After the depletion step, each respective cell population was assessed for the purity of CD4^+ and CD8^+ T cells by three-colour flow cytometry. Samples of depleted cell populations were stained with anti-CD3 antibody directly conjugated to fluorescein isothiocyanate (FITC), anti-CD4 antibody conjugated with phycoerythrin (PE) fluorochrome, and anti-CD8 antibody conjugated with Tricolor fluorochrome (described below). The percent of CD3^+/CD4^+ cells present within the CD8^+-depleted population and the percent of CD3^+/CD8^+ cells present within the CD4^+-depleted populations were assessed on FACSCalibur cytometer (Becton Dickinson). The purity of each population was greater than 90% and the results from the ELISPOT assays are expressed as the percentage of CD4+ or CD8^+ cells within the depleted populations that responded toward each peptide by producing IFN-γ.
(§2) PBMCs were incubated at 37° C. in RPMI+10% FCS with and without 10 μg/ml peptides for 6 hours. Golgiplug™ (Pharmingen, San Diego, Calif., USA) was added to the samples according to manufacturer's instructions during the second hour of incubation and cells activated with 25 ng/ml phorbol 12-myristidate 13-acetate (PMA; Sigma-Aldrich Co, St. Louis Mo.) and 1 μg/ml iomomycin (Sigma) acted as a positive control. Following the incubation, 1×10^6 cells/sample were washed and resuspended in staining buffer consisting of PBS with GolgiPlug™, 3% FCS and sodium azide. Cells were then stained with FITC conjugated anti-CD3-FITC (UCHT1, Immunotech, Marseille, France), and either Tricolor (TRI) conjugated anti-CD4 (S3.5, Caltag, Burlingame, Calif.) or anti-CD8 (3B5, Caltag) for 30 minutes, 4° C. in the dark. The cells were fixed for 20 min at 4° C. with Cytofix/Cytoperm™ (BD Biosciences) and resuspended in Perm/Wash™ permeabilization buffer (BD Biosciences) according to manufacturers protocol. Fixed cells were stained with phycoerythrin (PE) conjugated anti-human IFN-γ (B27, Pharmingen) for 30 min at 4° C. in the dark. As a negative control, cells were stained with appropriate isotype matched control antibodies. Cells were washed twice in permeabilization buffer and resuspended in staining buffer before analysis by three-colour flow cytometry on a FACSCalibur cytometer (BD Biosciences). All data analysis was carried out using FlowJo software (Tree Star, Inc. San Carlos, CA).
(§3) When using 20-mer peptides to map epitopes by ELISPOT, it is possible that some responses may be MHC class-II restricted, and not necessarily restricted through HLA class I alleles. It was evident throughout this study that some epitopes identified using ELISPOT could not be confirmed using cytotoxicity analysis. […]

Experiment [5] relates to CD4+ T cells. Described as above. It is filed as cell-based, human. Here is the method: as §1, §2, §3
The subject of experiment [6] is peptide-sensitized autologous PHA blasts or LCLs. Format: cell-based, human. Also noted: key to CTL response: Y: Yes; ND: Not detected.
The mark [7] stands for this setting: overlapping 20mer peptides, Table 4.

Several values for one entry are separate records, joined by “and”; a condition that tells them apart may be missing. Identical values can stand only once. Like-named read-outs stand apart in the source and are kept apart here.

T1 sequence (P04439 25-365): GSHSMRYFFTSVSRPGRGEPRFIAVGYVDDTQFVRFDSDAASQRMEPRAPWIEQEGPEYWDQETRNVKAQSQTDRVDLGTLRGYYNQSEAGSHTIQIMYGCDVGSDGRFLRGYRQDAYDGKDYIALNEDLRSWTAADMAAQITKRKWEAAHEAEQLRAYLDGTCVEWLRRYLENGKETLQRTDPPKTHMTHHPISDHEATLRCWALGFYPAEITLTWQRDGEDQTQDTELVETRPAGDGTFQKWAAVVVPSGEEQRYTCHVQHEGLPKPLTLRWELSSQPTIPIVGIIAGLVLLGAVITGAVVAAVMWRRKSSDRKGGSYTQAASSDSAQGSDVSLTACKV
T1 sequence (P61769 21-119, further chain): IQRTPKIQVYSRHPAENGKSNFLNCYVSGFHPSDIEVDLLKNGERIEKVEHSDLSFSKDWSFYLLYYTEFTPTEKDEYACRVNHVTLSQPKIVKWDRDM

Regarding “IMREFNSYK (human cytomegalovirus gB CTL epitope peptide)”, the “ELISPOT Responses (SFC/10^6 PBMC)” value in experiment [1] (donor four) was “MB(202) SFC/10^6 PBMC”. In addition, the “MSE (MHC stabilization efficiency)” value in experiment [2] is reported as “+++ (+++ = 200-300%)”. Regarding “LVEPCARVY (human cytomegalovirus pp28 CTL epitope peptide)”, the “MSE (MHC stabilization efficiency)” value in experiment [2] is “NT/++ (++ = 100-199%)”. In the case of “QLNRHSYLK (human cytomegalovirus gH CTL epitope peptide)”, the “MSE (MHC stabilization efficiency)” value in experiment [2] was “+++ (+++ = 200-300%)”. “SYLKDSDFL (human cytomegalovirus gH CTL epitope peptide)”: the “MSE (MHC stabilization efficiency)” value in experiment [3] is “− (− = 0-50%)”. For the sequence “AYEYVDYLF (human cytomegalovirus gB CTL epitope peptide)”, in experiment [3], the “MSE (MHC stabilization efficiency)” value is reported as “− (− = 0-50%)”. Still for that read-out and setting: the entry for “SYVVTNQYL (human cytomegalovirus gH CTL epitope peptide)” is “− (− = 0-50%)”. Take RVTGGGAMA: the “MSE (MHC stabilization efficiency)” value in experiment [2] was “− (− = 0-50%)”. Take “KLGGALQAK (human cytomegalovirus IE1 CTL epitope peptide)”: the “MSE (MHC stabilization efficiency)” value in experiment [2] is given as “+++ (+++ = 200-300%)”. Still for that read-out and setting: the entry for “GIKHEGLVK (human cytomegalovirus pp28 CTL epitope peptide)” is “+++ (+++ = 200-300%)”. With “TYGRPIRFL (human cytomegalovirus gH CTL epitope peptide)”, the “MSE (MHC stabilization efficiency)” value in experiment [3] was “− (− = 0-50%)”. On the same count and under the same terms, the entry for “LYLCCGITL (human cytomegalovirus US6 CTL epitope peptide)” is “− (− = 0-50%)”. On to GVMTRGRLK, for which the “MSE (MHC stabilization efficiency)” value in experiment [2] was “+++ (+++ = 200-300%)”. On the same count and under the same terms, the entry for “YLMDELRYVK (human cytomegalovirus gH CTL epitope peptide)” is “− (− = 0-50%)”; for “TLLNCAVTK (human cytomegalovirus pp50 CTL epitope peptide)” it is “+++ (+++ = 200-300%)”; for “AIIGIYLLY (human cytomegalovirus gH CTL epitope peptide)” it is “NT/+++ (+++ = 200-300%)”. Take “TYALVSKDL (human cytomegalovirus gH CTL epitope peptide)”: in experiment [3], the “MSE (MHC stabilization efficiency)” value is recorded as “− (− = 0-50%)”. In the case of “IIYTRNHEVK (human cytomegalovirus IE2 CTL epitope peptide)”, the “MSE (MHC stabilization efficiency)” value in experiment [2] was “+++ (+++ = 200-300%)”. Regarding “RLFPDATVP (human cytomegalovirus gH CTL epitope peptide)”, the “MSE (MHC stabilization efficiency)” value in experiment [2] is reported as “− (− = 0-50%)”. Consider LLLQRGPQY, for which, in experiment [2], the “MSE (MHC stabilization efficiency)” value was “+++ (+++ = 200-300%)”. As to “KYTQTEEKF (human cytomegalovirus IE1 CTL epitope peptide)”, the “MSE (MHC stabilization efficiency)” value in experiment [3] is reported as “− (− = 0-50%)”. Consider “TVRSHCVSK (human cytomegalovirus pp50 CTL epitope peptide)”, for which, in experiment [2], the “MSE (MHC stabilization efficiency)” value was “+++ (+++ = 200-300%)”. Same read-out and setting: the entry for “RLNTYALVSK (human cytomegalovirus gH CTL epitope peptide)” is “+++ (+++ = 200-300%)”; for “ALTVSEHVSY (human cytomegalovirus gH CTL epitope peptide)” it is “++ (++ = 100-199%)”.

Take “ELLAGGRVF (human cytomegalovirus pp28 CTL epitope peptide)”: the “MSE (MHC stabilization efficiency)” value in experiment [2] is given as “− (− = 0-50%)”.

“LVRLVYILSK (human cytomegalovirus gH CTL epitope peptide)”: the “MSE (MHC stabilization efficiency)” value in experiment [2] is “+++ (+++ = 200-300%)”. “RLLDLAPNY (human cytomegalovirus pp28 CTL epitope peptide)”: the “MSE (MHC stabilization efficiency)” value in experiment [2] was “+++ (+++ = 200-300%)”. On to YPSAAERKHRHLPVADAVIH, for which, in experiment [1] (donor delta), the “ELISPOT Responses (SFC/10^6 PBMC)” value is “SE(350) SFC/10^6 PBMC”. Moreover, the “Responding cells (% CD8)” value in experiment [4] (donor delta) is recorded as 0.313%. Further, the “Responding cells (% CD4)” value in experiment [5] (donor delta) is 0%. Besides, the CTL response result in experiment [6] (setting [7]) is listed as “Y”. For the sequence QVIGDQYVK, the “MSE (MHC stabilization efficiency)” value in experiment [2] is on record as “++ (++ = 100-199%)”.

As to “MQLIPDDYSNTHSTRYVTVK (human cytomegalovirus gB CTL epitope peptide)”, the “ELISPOT Responses (SFC/10^6 PBMC)” value was 238 SFC/10^6 PBMC and 302 SFC/10^6 PBMC in experiment [1] (donor four); “SB(157) SFC/10^6 PBMC” in experiment [1] (donor seven). Further, the “Responding cells (% CD8)” value in experiment [4] (donor four) is recorded as 0.03%. In experiment [5] (donor four), the “Responding cells (% CD4)” value stood at 0.06%. The CTL response result in experiment [6] (setting [7]) is “Y”. Consider “ALALFAAAR (human cytomegalovirus gH CTL epitope peptide)”, for which the “MSE (MHC stabilization efficiency)” value in experiment [2] is reported as “− (− = 0-50%)”.

For “ELLGRLNVY (human cytomegalovirus pp28 CTL epitope peptide)”, in experiment [2], the “MSE (MHC stabilization efficiency)” value is on record as “− (− = 0-50%)”. For SQYRIQGKLEYRHTWDRHDE, in experiment [1] (donor delta), the “ELISPOT Responses (SFC/10^6 PBMC)” value is recorded as “SE(1203) SFC/10^6 PBMC”. Besides, the “Responding cells (% CD8)” value in experiment [4] (donor delta) stood at 2.0%. Also, in experiment [5] (donor delta), the “Responding cells (% CD4)” value is reported as 0%. Also, the CTL response entry in experiment [6] (setting [7]) is reported as “Y”. As to “SLRNSTVVR (human cytomegalovirus gH CTL epitope peptide)”, in experiment [2], the “MSE (MHC stabilization efficiency)” value was “+++ (+++ = 200-300%)”. For the sequence “RSYAYIYTTYLLGSNTEYVA (human cytomegalovirus gB CTL epitope peptide)”, the “ELISPOT Responses (SFC/10^6 PBMC)” value in experiment [1] (donor fourteen) is “RK(170) SFC/10^6 PBMC”. In experiment [4] (donor fourteen), the “Responding cells (% CD8)” value was found to be 0.58%. In addition, in experiment [5] (donor fourteen), the “Responding cells (% CD4)” value is on record as 0.39%. Also, the CTL response entry in experiment [6] (setting [7]) is reported as “Y”. On to “KMTATFLSK (human cytomegalovirus gB CTL epitope peptide)”, for which the “MSE (MHC stabilization efficiency)” value in experiment [2] is on record as “+++ (+++ = 200-300%)”. For “TAAKAYAVGQFEQPTETPPE (human cytomegalovirus IE2 CTL epitope peptide)”, the “ELISPOT Responses (SFC/10^6 PBMC)” value in experiment [1] (donor fourteen) was determined as 859 SFC/10^6 PBMC; in experiment [1] (donor seven), 326 SFC/10^6 PBMC. Moreover, in experiment [4] (donor fourteen), the “Responding cells (% CD8)” value was determined as 0.35%. Further, in experiment [5] (donor fourteen), the “Responding cells (% CD4)” value was 0.2%. Besides, the CTL response result in experiment [6] (setting [7]) was “Y”. In the case of IQIIYTRNHEVKSEVDAVRC, the “ELISPOT Responses (SFC/10^6 PBMC)” value is on record as 203 SFC/10^6 PBMC in experiment [1] (donor delta) and 288 SFC/10^6 PBMC in experiment [1] (donor seven). Also, the “Responding cells (% CD8)” value in experiment [4] (donor delta) turned out to be 0.19%. In experiment [5] (donor delta), the “Responding cells (% CD4)” value is reported as 0%. In addition, the CTL response entry in experiment [6] (setting [7]) was “Y”. For the sequence “ELYLMGSLVH (human cytomegalovirus gH CTL epitope peptide)”, in experiment [2], the “MSE (MHC stabilization efficiency)” value is “− (− = 0-50%)”.

As for CSPDEIMAYAQKIFKILDEE, the “ELISPOT Responses (SFC/10^6 PBMC)” value in experiment [1] (donor five) is “CS(1532) SFC/10^6 PBMC”. Also, the “Responding cells (% CD8)” value in experiment [4] (donor five) stood at 0.4%. Further, in experiment [5] (donor five), the “Responding cells (% CD4)” value is given as 0.53%. For the same sequence, the CTL response result in experiment [6] is listed as “Y”.
